Test results from patent US20260027220A1, “EPHA2 BCL-XL INHIBITOR ANTIBODY-DRUG CONJUGATES AND METHODS OF USE THEREOF” (Novartis AG, priority 2022, published 2026).
Each block holds one molecule with its values, some of them ahead of it.

Columns and labels:
[1] = system: Panc03.27 xenografts; experiment: Panc03.27 xenograft efficacy, combination with gemcitabine (Table 15, FIG. 3); format: in vivo, mice; details: Gemcitabine 100 mg/kg IP q3dx3 alone
Protocol: (§1) EBC-1 cells were cultured at 37° C. (atmosphere of 5% CO2) in DMEM medium (Gibco 11965-084) supplemented with 10% FBS (HI-FBS #134K19, Tet-free). Panc03.27 cells were cultured at 37° C. (atmosphere of 5% CO2) in RPMI-1640 medium (Gibco 11875-085) supplemented with 15% FBS and 10 units/mL recombinant human insulin. Treatment with 0.25% Trypsin (Gibco 25200-056) was used for sub-culturing. To establish EBC-1 and Panc03.27 xenografts, cells were harvested and re-suspended in a 1:1 v/v mixture of phosphate buffered saline and Matrigel. A total of 5×10^6 EBC-1 cells and 10×10^6 Panc03.27 cells were injected subcutaneously in the flanks of female nude mice (Charles River, USA) in a volume of 200 μL. Tumor growth was monitored regularly post cell inoculation, and animals were randomized into treatment groups (n=8) with a mean tumor volume of about 200 mm^3.
(§2) For EBC-1 efficacy studies, EphA2-DANAPA-L11C-P25 ADC, 3207-DANAPA-L11C-P25 isotype control ADC, and EphA2-DANAPA CysMab control antibody were all dosed in combination with paclitaxel (LC Laboratories, Woburn, MA, Cat #: P-9600), as indicated in FIG. 1 and FIG. 2. For Panc03.27 efficacy studies, EphA2-DANAPA-L11C-P25 ADC, 3207-DANAPA-L11C-P25 isotype control ADC, and EphA2-DANAPA CysMab control antibody were all dosed in combination with either gemcitabine (Hospira, NDC Code 0409-0185-01) or the MAPK inhibitors (MAPKi) LXH254 and CFF272, as indicated in FIG. 3 and FIG. 4 respectively. […]
(§3) Tumor volume data were analyzed for statistical significance relative to the EphA2-DANAPA-L11C-P25 ADC combination groups. […]
(§4) As a measure of efficacy, % T/C values were calculated according to the following formula: (Δtumor volume in experimental group/Δtumor volume in vehicle control group)*100. Tumor regression was calculated according to the following formula: (Δtumor volume in experimental group/tumor volume in experimental group at start)*100. Δtumor volumes represent mean tumor volumes on the measurement day minus the mean tumor volume at the start of treatment. […]

[2] = system: aspc1; experiment: CellTiter-Glo proliferation assay, aspc1; format: cell-based; details: single agent, 5 days of treatment
Protocol: (§5) EphA2-L11A-P21 antibody drug conjugate (ADC) alone or in combination with Trametinib were tested against cancer cell lines obtained from ATCC (American Type Culture Collection) or from other commercial cell line vendors. EphA2-L11A-P21 ADC was prepared according to any of the conjugation methods described herein. The cells were cultured in media that is optimal for their growth at 5% CO2, 37° C. in a tissue culture incubator. Prior to seeding for the proliferation assay, the cells were split at least 2 days before the assay to ensure optimal growth density. On the day of seeding, cells were lifted off tissue culture flasks using 0.25% trypsin. Cell viability and cell density were determined using a cell counter (Vi-Cell XR Cell Viability Analyzer, Beckman Coulter). […]
(§6) The ADCs were prepared in standard phosphate buffered solution to desired concentrations. […] The ability of the ADCs to inhibit cell proliferation and survival was assessed using the Promega CellTiter-Glo® proliferation assay. Plates were incubated at room temperature for 20 minutes to stabilize luminescent signals prior to reading using a multimode plate reader (Pherastar, BMG). Luminescent counts of untreated cells were taken the day after seeding (Day 0 readings), and after 5 days of treatment (Day 5 readings). The Day 5 readings of the untreated cells were compared to the Day 0 readings. […]

[3] = system: capan2; experiment: CellTiter-Glo proliferation assay, capan2; format: cell-based; details: single agent, 5 days of treatment
Protocol: as §5, §6

[4] = system: dv90; experiment: CellTiter-Glo proliferation assay, dv90; format: cell-based; details: single agent, 5 days of treatment
Protocol: as §5, §6

[5] = system: ebc1; experiment: CellTiter-Glo proliferation assay, ebc1; format: cell-based; details: single agent, 5 days of treatment
Protocol: as §5, §6

[6] = system: hcc1143; experiment: CellTiter-Glo proliferation assay, hcc1143; format: cell-based; details: single agent, 5 days of treatment
Protocol: as §5, §6

[7] = system: jhom2b; experiment: CellTiter-Glo proliferation assay, jhom2b; format: cell-based; details: single agent, 5 days of treatment
Protocol: as §5, §6

[8] = system: ncin87; experiment: CellTiter-Glo proliferation assay, ncin87; format: cell-based; details: single agent, 5 days of treatment
Protocol: as §5, §6

[9] = system: ocum1; experiment: CellTiter-Glo proliferation assay, ocum1; format: cell-based; details: single agent, 5 days of treatment
Protocol: as §5, §6

[10] = system: panc0327; experiment: CellTiter-Glo proliferation assay, panc0327; format: cell-based; details: single agent, 5 days of treatment
Protocol: as §5, §6

[11] = system: skhep1; experiment: CellTiter-Glo proliferation assay, skhep1; format: cell-based; details: single agent, 5 days of treatment
Protocol: as §5, §6

[12] = system: skmel31; experiment: CellTiter-Glo proliferation assay, skmel31; format: cell-based; details: single agent, 5 days of treatment
Protocol: as §5, §6

[13] = system: sw403; experiment: CellTiter-Glo proliferation assay, sw403; format: cell-based; details: single agent, 5 days of treatment
Protocol: as §5, §6

[14] = system: EBC-1 xenografts; experiment: EBC-1 xenograft efficacy, combination with paclitaxel (Table 13, FIG. 1); format: in vivo, mice; details: Paclitaxel 12.5 mg/kg SD IV alone; Day 12
Protocol: as §1, §2, §3, §4

[15] = system: EBC-1 xenografts; experiment: EBC-1 xenograft efficacy, ADC dose reduction alone or with paclitaxel (Table 14, FIG. 2); format: in vivo, mice; details: Paclitaxel 12.5 mg/kg SD IV alone
Protocol: as §1, §2, §3, §4

[16] = molecular target: T1, human EphA2 expressed on HKB-11 cells (human, UniProt P29317 24-976); experiment: FACS titration on HKB-11 cells transduced to overexpress EphA2 (200 to 0.003 nM antibody, Alexa Fluor 647 anti-human IgG, MFI of live cells)
T1 construct: The HKB-11 cells were transduced to overexpress EphA2; also called HKB-11 EphA2+ cell line
Protocol: The binding affinity of EphA2 antibodies on cells was evaluated using flow cytometry (FACS). […] Cell lines were cultured in media that is optimal for their growth at 5% CO₂, 37° C. in a tissue culture incubator. Cell viability and cell density were determined using a cell counter (Vi-Cell XR Cell Viability Analyzer, Beckman Coulter). […] All subsequent steps were performed on ice and in ice cold FACS buffer to prevent internalization of the receptor. Cells were resuspended in 100 μL of FACS buffer containing an 11-point serial dilution of test antibodies at final concentrations of 200 nM-0.003 nM. Cells were incubated at 4° C. for 45 minutes. Following incubation, cells were washed three times in ice cold PBS at 1000 rpm for 5 minutes with 200 μL FACS buffer. […] Cells were incubated in the dark at 4° C. for 45 minutes. Following incubation, cells were washed three times in ice cold PBS at 1000 rpm for 5 minutes with 200 μL FACS buffer. Cells were then resuspended in 100 μL FACS buffer containing DAPI (ThermoFisher, #D1306) staining followed by readout via flow cytometry (MACSQuant® Analyzer 10). Data was analyzed using FlowJo v10.8.1 to obtain MFI (Mean Fluorescence Intensity) on live cells. EC₅₀ values were calculated using the GraphPad Prism 9 software. There were three rounds of experiments performed to evaluate three groupings of EphA2 antibodies. […]

[17] = molecular target: T2, cyno EphA2 ectodomain (cyno, UniProt Q1KL86 25-537); experiment: SPR (Biacore 8k), Fab-capture, 37C, 1:1 model; *low binding signal
T2 construct: extracellular domain
Protocol: (§7) A human Fab capture method was utilized in order to determine kinetics for the antibodies. […] Each channel has two flow cells. The reference flow cell contained only immobilized anti-Fab, whereas the reaction flow cell captured anti-EphA2 IgG through anti-Fab. HBS-EP+ Buffer, pH 7.6 was used as the running buffer. The soluble human, mouse and cyno EphA2 ectodomain flowed over both flow cells on 8 channels. The EphA2 ectodomain concentration started at 50 nM and was serially diluted at one part to one part (1:1) in the running buffer for six concentrations. The analysis chamber was kept at 37° C. Regeneration was performed at the end of each sample washing with the solution of 10 mM Glycine-HCl, pH 2.1 provided in the kit.
(§8) The data were analysed using the Biacore Insight Evaluation Software. Double reference subtraction was completed to generate the final data. The raw data was fitted to a 1:1 binding model, with parameter(s) Rₘₐₓ set to local.

[18] = molecular target: T2, cyno EphA2 ectodomain; experiment: SPR (Biacore 8k), Fab-capture, 37C, 1:1 model;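 also: Anti-EphA2 IgG captured via immobilized anti-Fab, soluble EphA2 ectodomain as analyte at six twofold dilutions from 50 nM, HBS-EP+ pH 7.6 running buffer, double reference subtraction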
Protocol: as §7, §8

T2 sequence (Q1KL86 25-537): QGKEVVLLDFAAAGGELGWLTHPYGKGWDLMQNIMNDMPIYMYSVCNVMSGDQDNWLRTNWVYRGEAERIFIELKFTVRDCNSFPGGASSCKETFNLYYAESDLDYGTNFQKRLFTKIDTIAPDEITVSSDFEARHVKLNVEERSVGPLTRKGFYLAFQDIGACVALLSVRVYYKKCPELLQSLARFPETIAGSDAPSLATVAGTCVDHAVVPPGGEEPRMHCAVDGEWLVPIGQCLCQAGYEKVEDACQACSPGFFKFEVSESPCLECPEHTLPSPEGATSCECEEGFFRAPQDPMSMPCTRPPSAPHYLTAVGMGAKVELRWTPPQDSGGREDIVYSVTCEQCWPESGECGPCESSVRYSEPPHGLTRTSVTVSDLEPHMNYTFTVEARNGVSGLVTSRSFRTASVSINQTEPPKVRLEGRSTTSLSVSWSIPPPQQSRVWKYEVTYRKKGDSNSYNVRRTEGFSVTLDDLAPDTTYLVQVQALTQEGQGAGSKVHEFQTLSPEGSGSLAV
T1 sequence (P29317 24-976 limits assumed): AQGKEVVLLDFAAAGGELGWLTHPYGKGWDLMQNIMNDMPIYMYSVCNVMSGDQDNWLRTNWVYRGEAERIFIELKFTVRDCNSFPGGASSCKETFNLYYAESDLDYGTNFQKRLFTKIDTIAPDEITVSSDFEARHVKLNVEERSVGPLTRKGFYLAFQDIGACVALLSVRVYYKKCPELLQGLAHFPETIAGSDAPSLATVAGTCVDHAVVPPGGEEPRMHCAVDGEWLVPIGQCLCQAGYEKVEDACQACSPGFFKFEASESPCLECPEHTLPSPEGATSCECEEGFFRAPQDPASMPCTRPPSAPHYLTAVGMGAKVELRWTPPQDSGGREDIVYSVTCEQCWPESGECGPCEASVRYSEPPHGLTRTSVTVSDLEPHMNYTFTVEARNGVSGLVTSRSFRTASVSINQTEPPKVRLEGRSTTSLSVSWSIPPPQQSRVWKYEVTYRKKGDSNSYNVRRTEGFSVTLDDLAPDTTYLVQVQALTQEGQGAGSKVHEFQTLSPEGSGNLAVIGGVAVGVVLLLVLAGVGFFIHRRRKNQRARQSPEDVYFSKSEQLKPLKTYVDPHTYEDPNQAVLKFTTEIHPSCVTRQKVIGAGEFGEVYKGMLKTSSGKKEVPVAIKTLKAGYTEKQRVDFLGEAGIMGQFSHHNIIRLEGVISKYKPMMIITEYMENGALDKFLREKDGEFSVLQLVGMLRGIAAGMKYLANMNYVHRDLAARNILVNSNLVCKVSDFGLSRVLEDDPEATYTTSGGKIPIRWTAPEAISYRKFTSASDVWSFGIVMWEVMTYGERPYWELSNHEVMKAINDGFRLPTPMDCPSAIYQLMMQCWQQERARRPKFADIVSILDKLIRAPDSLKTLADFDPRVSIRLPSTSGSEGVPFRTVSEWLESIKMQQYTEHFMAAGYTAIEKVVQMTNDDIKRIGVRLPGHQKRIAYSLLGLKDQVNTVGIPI

Molecule: Nc1ccn([C@@H]2O[C@H](CO)[C@@H](O)C2(F)F)c(=O)n1 [Gemcitabine]
% T/C ([1]; Day 11): 31% | ΔTumor volume (mm^3 ± SEM) ([1]; Day 11): 153 ± 39 mm^3 | Complete Responders ([1]; Day 34): 0/8

Molecule: CC(=O)O[C@H]1C(=O)[C@@]2(C)[C@H]([C@H](OC(=O)c3ccccc3)[C@]3(O)C[C@H](OC(=O)[C@H](O)[C@@H](NC(=O)c4ccccc4)c4ccccc4)C(C)=C1C3(C)C)[C@]1(OC(C)=O)CO[C@@H]1C[C@@H]2O [Paclitaxel, paclitaxel]
% T/C [14]: 46% | Complete Responders [14]: 0/8 | ΔTumor volume (mm^3 ± SEM) [14]: 687 ± 224 mm^3 | % T/C ([15]; Day 14): 71% | ΔTumor volume (mm^3 ± SEM) ([15]; Day 14): 649 ± 97 mm^3 | Complete Responders ([15]; Day 16): 0/8

B3: 1C1 ADC (antibody, V domains shown)
VH: EVQLLESGGGLVQPGGSLRLSCAASGFTFSHYMMAWVRQAPGKGLEWVSRIGPSGGPTHYADSVKGRFTISRDNSKNTLYLQMNSLRAEDTAVYYCAGYDSGYDYVAVAGPAEYFQHWGQGTLVTVSS
VL: DIQMTQSPSSLSASVGDRVTITCRASQSISTWLAWYQQKPGKAPKLLIYKASNLHTGVPSRFSGSGSGTEFSLTISGLQPDDFATYYCQQYNSYSRTFGQGTKVEIK
modifications: antibody-drug conjugate; linker-payload and conjugation sites not stated for this sample
notes: Antibody-drug conjugate of 1C1; also called XD-01-KE85
Kd [18]: 220 nM

Second part, led by results:

GI50 ([2]; Homo sapiens, 120 h): 42.2 nM | GI50 ([6]; Homo sapiens, 120 h): 0.99 nM | GI50 ([10]; Homo sapiens, PANC-03-27, 120 h): 2.35 nM | GI50 ([13]; Homo sapiens, SW-403, 120 h): 5.32 nM
Molecule: Cc1c(Nc2nc3ccccc3s2)nnc2c1CCCN2c1ccc(-c2cnn(C[C@]34C[C@]5(C)C[C@](C)(C3)C[C@@](OCCN3CCCC3)(C5)C4)c2C)c(C(=O)O)n1 [P21, 6-[3-(1,3-benzothiazol-2-ylamino)-4-methyl-6,7-dihydro-5H-pyrido[2,3-c]pyridazin-8-yl]-3-[1-[[3,5-dimethyl-7-(2-pyrrolidin-1-ylethoxy)-1-adamantyl]methyl]-5-methyl-pyrazol-4-yl]pyridine-2-carboxylic acid]
GI Amax [2]: 2.18 | GI50 ([3]; Homo sapiens, Capan-2, 120 h): 4.38 nM | GI Amax [3]: −81.72 | GI50 ([4]; Homo sapiens, DV-90, 120 h): 266 nM | GI Amax [4]: 16.76 | GI50 ([5]; Homo sapiens, EBC-1, 120 h): 0.26 nM | GI Amax [5]: −96.78 | GI Amax [6]: −43.38 | GI50 ([7]; 120 h): 68.8 nM | GI Amax [7]: −27.63 | GI50 ([8]; Homo sapiens, NCI-N87, 120 h): 0.77 nM | GI Amax [8]: −29.31 | GI50 ([9]; 120 h): 0.49 nM | GI Amax [9]: −94.77 | GI Amax [10]: −79.2 | GI50 ([11]; Homo sapiens, SK-HEP1, 120 h): 0.05 nM | GI Amax [11]: −75.34 | GI50 ([12]; 120 h): 0.05 nM | GI Amax [12]: −56.5 | GI Amax [13]: −64.33

binding result [16]: no binding (tested: 200 nM)
B1: 3207 (antibody, V domains shown)
VH: QVQLQQSGPGLVKPSQTLSLTCAISGDSVSSNSAAWSWIRQSPGRGLEWLGRIYYRSKWYNDYAVSVKSRITINPDTSKNQFSLQLNSVTPEDTAVYYCARLDHRYHEDTVYPGMDVWGQGTLVTVSS
VL: DIELTQPPSVSVAPGQTARISCSGDNLPAYTVTWYQQKPGQAPVLVIYDDSDRPSGIPERFSGSNSGNTATLTISGTQAEDEADYYCASWDPSSGVVFGGGTKLTVL
notes: the legend prints only '3207'; also called IgG (3207); IgG anti-chicken lysozyme antibody

Kd [17]: 196 nM
B2: anti-EphA2 E152C S375C 1C1 (LC S10T) hIgG1 (WT Heavy Chain) (antibody, V domains shown)
VH: B3 VH
VL: DIQMTQSPSTLSASVGDRVTITCRASQSISTWLAWYQQKPGKAPKLLIYKASNLHTGVPSRFSGSGSGTEFSLTISGLQPDDFATYYCQQYNSYSRTFGQGTKVEIKR
notes: also called BB-60-FO04

Kd [18]: 224 nM
B4: LC Germ (1C1) (antibody, V domains shown)
VH: B3 VH
VL: B3 VL
notes: also called lots BA-71-QS06, HE-38-AZ34

Kd [18]: 265 nM
B5: anti-EphA2 IgG antibody 1C1 (antibody, V domains shown)
VH: B3 VH
VL: B3 VL
notes: Tested as IgG; also called 1C1 WT IgG; iProt 120126
